Measured values taken from patent publication US20090247646A1, “USE OF RESVERATROL AND DERIVATIVES THEREOF FOR PROMOTING THE WELLNESS STATE IN MAMMALS” (priority 2006, published 2009).

Test system: gene expression in heart tissue
Assay: Genome-wide gene expression in heart tissue of old mice fed a resveratrol-supplemented diet (Affymetrix Mouse Genome 430 2.0 array)
Assay type: in vivo

Measured: Effect of resveratrol on changeing gene expression from old to young profile

Oc1ccc(/C=C/c2cc(O)cc(O)c2)cc1 [resveratrol, 3,4′,5-Trihydroxy-trans-stilbene]
>100%: 1415741_at TPA regulated locus | 1416113_at FK506 binding protein 8 | 1416167_at peroxiredoxin 4 | 1416647_at branched chain ketoacid dehydrogenase E1, alpha polypeptide | 1416648_at dynein, cytoplasmic, heavy chain 1 | 1416698_a_at CDC28 protein kinase 1 | 1416800_at transient receptor potential cation channel, subfamily M, member 7 | 1417149_at procollagen-proline, 2-oxoglutarate 4-dioxygenase (proline 4-hydroxylase), alpha II polypeptide | 1417502_at transmembrane 4 superfamily member 2 | 1417628_at suppressor of Ty 6 homolog (S. cerevisiae) | 1417947_at proliferating cell nuclear antigen | 1417968_a_at methyl-CpG binding domain protein 1 | 1417982_at insulin induced gene 2 | 1418128_at adenylate cyclase 6 | 1418468_at annexin A11 | 1418509_at carbonyl reductase 2 | 1418524_at pericentriolar material 1 | 1418595_at plasma membrane associated protein, S3-12 | 1418648_at EGL nine homolog 3 (C. elegans) | 1418663_at multiple PDZ domain protein | 1418706_at solute carrier family 38, member 3 | 1419034_at casein kinase II, alpha 1 polypeptide | 1419220_at cardiomyopathy associated 1 | 1419665_a_at nuclear protein 1 | 1420620_a_at ring finger protein 13 | 1420727_a_at trimethyllysine hydroxylase, epsilon | 1420834_at vesicle-associated membrane protein 2 | 1420896_at synaptosomal-associated protein 23 | 1420899_at RAB18, member RAS oncogene family | 1420920_a_at ADP-ribosylation factor 1 | 1421468_at potassium inwardly-rectifying channel, subfamily J, member 3 | 1422452_at Bcl2-associated athanogene 3 | 1422799_at HLA-B associated transcript 2 | 1423040_at basic leucine zipper and W2 domains 1 | 1423126_at ATPase, Na+/K+ transporting, beta 3 polypeptide | 1423220_at eukaryotic translation initiation factor 4E | 1423474_at topoisomerase (DNA) I | 1423607_at lumican | 1423845_at expressed sequence AI481750 | 1423898_a_at gene trap locus 6 | 1424164_at mitochondrial ribosomal protein L50 | 1425022_at ubiquitin specific protease 3 | 1425281_a_at delta sleep inducing peptide, immunoreactor | 1425507_at ADP-ribosylation factor related protein 1 | 1425977_a_at serine/threonine kinase 2 | 1426440_at dehydrogenase/reductase (SDR family) member 7 | 1426613_a_at U2 small nuclear ribonucleoprotein B | 1427006_at guanine nucleotide releasing factor 2 | 1427036_a_at eukaryotic translation initiation factor 4, gamma 1 | 1427045_at synaptopodin | 1427245_at ADP-ribosylation factor GTPase activating protein 1 | 1427874_at zinc finger protein 313 | 1429186_a_at cytidine and dCMP deaminase domain containing 1 | 1431054_at LSM6 homolog, U6 small nuclear RNA associated (S. cerevisiae) | 1433558_at disabled homolog 2 (Drosophila) interacting protein | 1433811_at myeloid/lymphoid or mixed lineage-leukemia translocation to 6 homolog (Drosophila) | 1433890_a_at HLA-B-associated transcript 3 | 1433904_at BCL2-antagonist/killer 1 | 1434930_at two pore channel 1 | 1434944_at dystrophia myotonica kinase, B15 | 1435472_at kringle containing transmembrane protein | 1435658_at solute carrier family 27 (fatty acid transporter), member 1 | 1435664_at zinc finger protein 397 | 1436960_at bromodomain containing 3 | 1437892_at Mus musculus transcribed sequences | 1444089_at spectrin beta 2 | 1445186_at stanniocalcin 2 | 1448119_at 2,3-bisphosphoglycerate mutase | 1448185_at homocysteine-inducible, endoplasmic reticulum stress-inducible, ubiquitin-like domain member 1 | 1448277_at polymerase (DNA directed), delta 2, regulatory subunit | 1448307_at Down syndrome critical region homolog 2 (human) | 1448424_at frizzled-related protein | 1448703_at LSM8 homolog, U6 small nuclear RNA associated (S. cerevisiae)
